Data taken from patent publication US20180171411A1, “GFRalpha1 AS A BIOMARKER FOR CISPLATIN-INDUCED CHEMORESISTANCE AND METASTASIS” (THE BOARD OF REGENTS OF THE UNIVERSITY OF TEXAS SYSTEM, priority 2015, published 2018).

Legend:
[1] = test system: GDNF mRNA in MG-63 and U-2 OS cells; assay: PCR of GDNF mRNA expression after cisplatin; assay type: cell-based, human; settings: 10 and 20 μM of cisplatin, 24 h
Method: FIG. 7. GFRα1-mediated chemoresistance of osteosarcoma cells is independent of GDNF. (a) Quantitative real-time PCR of GDNF mRNA expression after cisplatin treatment. MG-63 and U-2 OS cells were treated with different concentrations of cisplatin for 24 h. (b-d) Cell viability was measured using the WST-1 assay. The values are represented as a mean±s.d.m. (n=3). (b) MG-63 cells were treated with PBS or GDNF (50 ng/ml) for 24 h. (c) Control and GFRα1-overexpressing cells were cultured and treated with PBS or GDNF for 24 h. (d) Control and GFRα1-overexpressing cells were treated and cultured with PBS only, Cisplatin, or Cisplatin+GDNF (50 ng/ml) for 24 h, respectively. […] Representative images of RFP-LC3 and GFP-LC3 puncta. Scale bar, 20 μm. Control and GFRα1-overexpressing MG-63 cells were transiently transfected with an RFP-GFP tandem fluorescent-tagged LC3 (RFP-GFP-LC3) and then treated with PBS (top two panels) or cisplatin (20 μM; bottom two panes) for 24 h. […] (f) Quantitative analysis of the number of yellow puncta and the number of RFP-LC3 puncta in the combined images of Control and GFRα1-overexpressing MG-63 cells treated with GDNF. […]
Semi-quantitative RT-PCR. […]

[2] = test system: MG-63 cells; assay: Acridine orange staining of acidic vesicular organelles (AVOs); assay type: cell-based, human; settings: control MG-63 cells; cisplatin 20 μM, 24 hr
Method: FIG. 3. GFRα1-induced autophagy enhances the chemoresistance of osteosarcoma cells induced by cisplatin. (a) Control and GFRα1-deficient MG-63 cells were transiently transfected with a mRFP-GFP tandem fluorescent-tagged LC3 (mRFP-GFP-LC3) vector and then treated with cisplatin (20μM) for 24 hr. Left, representative images of RFP-LC3 and GFP-LC3 puncta. Scale bar, 20 μm. Right, quantitative analysis of the number of yellow puncta and the number of RFP-LC3 puncta in the combined images. The values are represented as a mean±s.d.m. (n=3). ** denotes p<0.05 by t-test. (b) Control and GFRα1-deficient MG-63 cells were treated with cisplatin (20 μM) for 24 hr and then stained with acridine orange. […] Bottom, quantitative analysis of the number of AVOs. […] (c) Control and GFRα1-deficient MG-63 cells were treated with cisplatin (20 μM) for 24 hr and then analyzed by TEM. Top, representative images of autophagic vacuoles (yellow arrows) detected after cisplatin treatment in control MG-63 cells. […] Bottom, quantitative analysis of the number of autophagic vacuoles. […] (e) Quantitative analysis of the number of yellow puncta and the number of RFP-LC3 puncta in control and GFRα1-overexpressing MG-63 cells. […] Bottom, quantitative analysis of the number of AVOs. […] (h) Control and GFRα1-overexpressing MG-63 cells were treated with cisplatin (20 μM) for 24 hr and then analyzed by TEM. […]

N.N.[Cl][Pt][Cl] [cisplatin, Cis-Diamineplatinum(II) dichloride]
GDNF mRNA expression [1]: increase
AVO-positive cells [2]: significantly increased
